Experimental data reported in PubChem BioAssay (NCI).
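Cultured in 96-well plates, cells were exposed to test compound for 48 hours across five concentrations. At the GI50, growth is halved. TGI: concentration producing complete growth inhibition.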

What was measured:
Assay in all cases: NCI-60 cell line screen, 48 h
SW-620 colon = tested on: SW-620 colon
RXF 393 renal = tested on: RXF 393 renal
EKVX NSCLC = tested on: EKVX NSCLC
T-47D breast = tested on: T-47D breast
SF-295 CNS = tested on: SF-295 CNS
U251 CNS = tested on: U251 CNS
SK-MEL-28 melanoma = tested on: SK-MEL-28 melanoma
KM12 colon = tested on: KM12 colon
MOLT-4 leukemia = tested on: MOLT-4 leukemia
LOX IMVI melanoma = tested on: LOX IMVI melanoma
CAKI-1 renal = tested on: CAKI-1 renal
SF-539 CNS = tested on: SF-539 CNS
SF-268 CNS = tested on: SF-268 CNS
SNB-75 CNS = tested on: SNB-75 CNS
SK-OV-3 ovarian = tested on: SK-OV-3 ovarian
ACHN renal = tested on: ACHN renal
MCF7 breast = tested on: MCF7 breast
UO-31 renal = tested on: UO-31 renal
NCI-H460 lung = tested on: NCI-H460 lung
786-0 renal = tested on: 786-0 renal
BT-549 breast = tested on: BT-549 breast
RPMI-8226 leukemia = tested on: RPMI-8226 leukemia
K-562 leukemia = tested on: K-562 leukemia
M14 melanoma = tested on: M14 melanoma
COLO 205 colon = tested on: COLO 205 colon
UACC-257 melanoma = tested on: UACC-257 melanoma
MALME-3M melanoma = tested on: MALME-3M melanoma
A549 NSCLC = tested on: A549 NSCLC
HOP-62 NSCLC = tested on: HOP-62 NSCLC
TK-10 renal = tested on: TK-10 renal
NCI/ADR-RES ovarian = tested on: NCI/ADR-RES ovarian
MDA-MB-231 breast = tested on: MDA-MB-231 breast
OVCAR-4 ovarian = tested on: OVCAR-4 ovarian
HCT-116 colon = tested on: HCT-116 colon
IGROV1 ovarian = tested on: IGROV1 ovarian
OVCAR-3 ovarian = tested on: OVCAR-3 ovarian
NCI-H23 lung = tested on: NCI-H23 lung
DU-145 prostate = tested on: DU-145 prostate
PC-3 prostate = tested on: PC-3 prostate
MDA-MB-435 = tested on: MDA-MB-435
UACC-62 melanoma = tested on: UACC-62 melanoma
HOP-92 NSCLC = tested on: HOP-92 NSCLC
HCT-15 colon = tested on: HCT-15 colon
SNB-19 CNS = tested on: SNB-19 CNS
HCC-2998 colon = tested on: HCC-2998 colon
NCI-H522 lung = tested on: NCI-H522 lung
A498 renal = tested on: A498 renal
SK-MEL-5 melanoma = tested on: SK-MEL-5 melanoma
HS 578T breast = tested on: HS 578T breast
SK-MEL-2 melanoma = tested on: SK-MEL-2 melanoma
OVCAR-8 ovarian = tested on: OVCAR-8 ovarian
OVCAR-5 ovarian = tested on: OVCAR-5 ovarian
SN12C renal = tested on: SN12C renal
NCI-H226 lung = tested on: NCI-H226 lung
HT29 colon = tested on: HT29 colon

SMILES: CCN(CC)CCOc1ccc(/C=C2\CC3C4CCC5=CC(=O)CC[C@]5(C)C4CC[C@]3(C)C2=O)cc1OC (some centres undefined)
- GI50 (SW-620 colon): 2980 nM
- TGI (SW-620 colon): 13.4 µM
- GI50 (RXF 393 renal): 1850 nM
- TGI (RXF 393 renal): 4.56 µM
- GI50 (EKVX NSCLC): 4.88 µM
- TGI (EKVX NSCLC): 19.5 µM
- GI50 (T-47D breast): 3.14 µM
- TGI (T-47D breast): 17.1 µM
- GI50 (SF-295 CNS): 2010 nM
- TGI (SF-295 CNS): 4.06 µM
- GI50 (U251 CNS): 2570 nM
- TGI (U251 CNS): 8.39 µM
- GI50 (SK-MEL-28 melanoma): 2290 nM
- TGI (SK-MEL-28 melanoma): 5.67 µM
- GI50 (KM12 colon): 1930 nM
- TGI (KM12 colon): 3.85 µM
- GI50 (MOLT-4 leukemia): 5.78 µM
- TGI (MOLT-4 leukemia): > 100 µM
- GI50 (LOX IMVI melanoma): 1890 nM
- TGI (LOX IMVI melanoma): 4.43 µM
- GI50 (CAKI-1 renal): 2660 nM
- TGI (CAKI-1 renal): 6.54 µM
- GI50 (SF-539 CNS): 2060 nM
- TGI (SF-539 CNS): 6.13 µM
- GI50 (SF-268 CNS): 2340 nM
- TGI (SF-268 CNS): 5.62 µM
- GI50 (SNB-75 CNS): 3.02 µM
- TGI (SNB-75 CNS): 7.78 µM
- GI50 (SK-OV-3 ovarian): 2660 nM
- TGI (SK-OV-3 ovarian): 8.46 µM
- GI50 (ACHN renal): 3.05 µM
- GI50 (MCF7 breast): 3.02 µM
- TGI (MCF7 breast): 13.7 µM
- GI50 (UO-31 renal): 701 nM
- TGI (UO-31 renal): > 100 µM
- GI50 (NCI-H460 lung): 2850 nM
- TGI (NCI-H460 lung): 11.2 µM
- GI50 (786-0 renal): 2180 nM
- TGI (786-0 renal): 4.61 µM
- GI50 (BT-549 breast): 5.02 µM
- TGI (BT-549 breast): 19.7 µM
- GI50 (RPMI-8226 leukemia): 1790 nM
- TGI (RPMI-8226 leukemia): 5.03 µM
- GI50 (K-562 leukemia): 3.14 µM
- TGI (K-562 leukemia): > 100 µM
- GI50 (M14 melanoma): 2080 nM
- TGI (M14 melanoma): 3.96 µM
- GI50 (COLO 205 colon): 1750 nM
- TGI (COLO 205 colon): 4.61 µM
- GI50 (UACC-257 melanoma): 3.43 µM
- TGI (UACC-257 melanoma): 11.1 µM
- GI50 (MALME-3M melanoma): 1500 nM
- TGI (MALME-3M melanoma): 2950 nM
- GI50 (A549 NSCLC): 4.54 µM
- TGI (A549 NSCLC): 58.3 µM
- GI50 (HOP-62 NSCLC): 2500 nM
- TGI (HOP-62 NSCLC): 6.37 µM
- GI50 (TK-10 renal): 2450 nM
- TGI (TK-10 renal): 5.59 µM
- GI50 (NCI/ADR-RES ovarian): 3.22 µM
- TGI (NCI/ADR-RES ovarian): 13 µM
- GI50 (MDA-MB-231 breast): 2550 nM
- TGI (MDA-MB-231 breast): 6.17 µM
- GI50 (OVCAR-4 ovarian): 10.6 µM
- TGI (OVCAR-4 ovarian): > 100 µM
- GI50 (HCT-116 colon): 1850 nM
- TGI (HCT-116 colon): 4.45 µM
- GI50 (IGROV1 ovarian): 22.7 µM
- TGI (IGROV1 ovarian): > 100 µM
- GI50 (OVCAR-3 ovarian): 2370 nM
- TGI (OVCAR-3 ovarian): 5.07 µM
- GI50 (NCI-H23 lung): 3.17 µM
- TGI (NCI-H23 lung): 11 µM
- GI50 (DU-145 prostate): 3.26 µM
- TGI (DU-145 prostate): 16.4 µM
- GI50 (PC-3 prostate): 2920 nM
- TGI (PC-3 prostate): 13.9 µM
- GI50 (MDA-MB-435): 1870 nM
- TGI (MDA-MB-435): 4 µM
- GI50 (UACC-62 melanoma): 2010 nM
- TGI (UACC-62 melanoma): 4.13 µM
- GI50 (HOP-92 NSCLC): 3.14 µM
- TGI (HOP-92 NSCLC): 7.51 µM
- GI50 (HCT-15 colon): 2820 nM
- TGI (HCT-15 colon): 10.5 µM
- GI50 (SNB-19 CNS): 4.03 µM
- TGI (SNB-19 CNS): 22.7 µM
- GI50 (HCC-2998 colon): 2180 nM
- TGI (HCC-2998 colon): 5.18 µM
- GI50 (NCI-H522 lung): 7.15 µM
- TGI (NCI-H522 lung): > 100 µM
- GI50 (A498 renal): 1990 nM
- TGI (A498 renal): 8.48 µM
- GI50 (SK-MEL-5 melanoma): 1630 nM
- TGI (SK-MEL-5 melanoma): 3.28 µM
- GI50 (HS 578T breast): 2450 nM
- TGI (HS 578T breast): 17.3 µM
- GI50 (SK-MEL-2 melanoma): 9.01 µM
- TGI (SK-MEL-2 melanoma): > 100 µM
- GI50 (OVCAR-8 ovarian): 4.09 µM
- TGI (OVCAR-8 ovarian): 18.2 µM
- GI50 (OVCAR-5 ovarian): 3.6 µM
- TGI (OVCAR-5 ovarian): 17.4 µM
- GI50 (SN12C renal): 2600 nM
- TGI (SN12C renal): 7.06 µM
- GI50 (NCI-H226 lung): 2030 nM
- TGI (NCI-H226 lung): 6.51 µM
- GI50 (HT29 colon): 1300 nM
- TGI (HT29 colon): > 100 µM
